Assay results as given in patent US20020123524A1, “Treatment of vascular events using lipid-modifying compositions” (priority 1998, published 2002).

Columns and labels:
[1] = VA-HIT subgroup analysis: diabetes and hyperinsulinemia, CHD and stroke events, mortality; type: in vivo, men; design: Overall Risk Reduction with Gemfibrozil (cardiovascular or cerebrovascular event) / Overall Risk Reduction with Gemfibrozil: concentration or dose not given beside the values; conditions: for Five Year Event Rate, Stroke / Five Year Event Rate, CHD: Gemfibrozil Group
Text: Determining whether an individual has Type 2 diabetes and/or hyperinsulinemia can be done using assays that are well known in the art. Several assays are commercially available. The levels that define whether an individual has Type 2 diabetes or hyperinsulinemia vary depending on the type of assay used. An example of an assay that can measure glucose tolerance or glucose levels is one that uses glucose oxidase as a reagent. Using such a test, levels of fasting glucose of greater than or equal to about 126 mg/dL characterize a type 2 diabetic. An assay referred to as “Coat-A-Count” (Diagnostic Products, Los Angeles, Calif.) is an example of an assay that measures insulin. Levels of fasting insulin above about 40 μU/mL using the Coat-A-Count assay are levels that characterize an individual with hyperinsulinemia. For the data described in Example 2, insulin resistance (hyperinsulinemia) was defined by the levels of insulin determined in the Framingham Offspring Population. Meigs J B, et al., Metabolic Risk Factors Worsen Continuously Across the Spectrum of Nondiabetic Glucose Tolerance, The Framingham Offspring Study. Ann Intern Med 128:524-533 (1998). Subjects, described in Example 2, were designated as diabetic by having a history of diabetes or a fasting plasma glucose of about 126 mg/dL or greater and as being hyperinsulinemic with a fasting plasma insulin of about 40 μU/mL or greater. This value of insulin marked the 90th percentile of values for subjects with normal glucose tolerance in the Framingham Offspring Study. This value also corresponded to the level of insulin at which there was a significant increase in CHD events in Example 2.
Fibric acid decreases incidence of vascular events in diabetic patients (e.g., events that cause the heart to have irregular rhythms such as ventricular fibrillation, ventricular tachycardia, asystole, and includes, for example, myocardial infarction, angina, and death).
Diabetes mellitus (DM) has long been recognized as a major risk factor for a vascular atherothrombotic event, most particularly coronary heart disease and cerebrovascular disease. […] Although patients with DM were not singled out as a specific recruitment target (i.e., not a specific target for fibrate therapy in VA-HIT), patients with DM frequently have a low HDL-C and, thus, were clearly eligible for VA-HIT and treatment with the fibrate, genfibrozil.
Thus, 31% of VA-HIT patients had diabetes. […] There is evidence that patients with high insulin levels (i.e., patients with “hyperinsulinemia” or “insulin resistance”) but without overt DM have as high a risk of coronary heart disease as is associated with DM itself. Consequently, 47% of patients in VA-HIT had either DM or hyperinsulinemia and in this large subgroup of patients, both coronary heart disease (CHD) events and stroke were higher than in the remainder of VA-HIT patients and the benefit of fibrate therapy was greater.

[2] = VA-HIT trial: percent change in plasma lipids with gemfibrozil vs placebo; type: in vivo, men; conditions: for Effect on HDL-C level (in words): compared to controls treated with placebo
Experimental: Lipoproteins levels and triglyceride levels are measured and assessed using routine methods known in the art. Commercially available kits and assays may be used to evaluate the level of HDL-C, LDL-C and level of triglyceride.
(§1) This study, the Veterans Administration HDL-C Intervention Trial (VA-HIT), was a seven year, 20 center, randomized, placebo-controlled, double blind secondary prevention trial designed to determine if a fibric acid (e.g., gemfibrozil) reduced the incidence of myocardial infarction (MI) and CHD death in male patients who have low levels of both HDL-C and LDL-C. […] Primary endpoints and the secondary endpoint, stroke, were adjudicated by blinded committees using standard criteria. Gemfibrozil (1200mg/day, orally) was selected with the goal of raising HDL-C and lowering triglycerides (TG) without affecting LDL-C.
(§2) “Low HDL-C” was defined as less than 40 mg/dL and “low LDL-C” was defined as less than 140 mg/dL values which are based on the entrance lipid criteria for the population enrolled in VA-HIT. With these lipid criteria, the mean entrance value at baseline of HDL-C was 32 mg/dL and of LDL-C was 111 mg/dL.
(§3) 2531 patients were enrolled and followed for a median of 5 years. Compliance, lipid changes, endpoints rates, losses to follow-up, and crossovers to active treatment have been consistent with the original projections. At baseline, the mean age was 64 yrs; average lipid values were, in mg/dL: HDL-C 32; TG 161; LDL-C 111; total cholesterol 176. (For comparison, the mean baseline LDL-C in recent major secondary prevention trials was 189 in the Scandinavian Simvastatin Survival Study, 139 in the Cholesterol and Recurrent Events study, and 150 in the Long-Term Intervention with Pravastatin in Ischemic Disease study). The mean body mass index was 29±5. The prevalence of diabetes was 31% and of hypertension 57%. Aspirin and beta blockers were used by 82%, and 43% of patients, respectively.
(§4) VA-HIT was a major clinical trial to investigate whether lipid therapy benefits people with heart disease whose primary lipid abnormality is a low level of HDL-C. The VA-HIT study enrolled 2531 male veterans with heart disease who had low levels of LDL-C cholesterol and low levels of HDL-C cholesterol. The average LDL-C level was 111 mg/dL and HDL-C was 32 mg/dL. Patients were randomly assigned to receive either gemfibrozil or a placebo.
(§5) 2531 men with CHD enrolled in trial 1991-1993. The trial ended 7/31/98 with median follow-up of 5.1 years. Vital status of patients known is 99.2%. 71% remained on assigned therapy at end of trial which is about the average in a long trial.

[3] = VA-HIT trial: CHD death, nonfatal MI, stroke and other clinical endpoints, adverse events; type: in vivo; conditions: for Relative risk reduction, CHD death/nonfatal MI (heart attacks and cardiac deaths): primary endpoint, p=0.0063
Text: as §1, §2, §3, §4
The reduction in the incidence or severity of vascular disease was determined by comparing data from individuals undergoing the methods of the present invention to those who were not. Data regarding the incidence or occurrence of a vascular event including death were obtained from control patients having the same or similar disease states under the same or similar conditions as the individual undergoing the methods of the present invention. The control patient received a placebo, as opposed to the test patients who received the lipid modifying drug.
as §5

[4] = gemfibrozil 1200 mg/day orally, men with CHD, low HDL-C and low LDL-C, statistically significant difference vs placebo

In the case of `Cc1ccc(C)c(OCCCC(C)(C)C(=O)O)c1` [Gemfibrozil, 5-(2,5-dimethylphenoxy)-2,2-dimethylpentanoic acid], the “RRR (relative risk reduction with gemfibrozil), All-Cause Mortality” value ([1]; Diabetes + Hyperinsulinemia alone, N 1157, P 0.021) was 26%, the “RRR (relative risk reduction with gemfibrozil), CHD Death” value ([1]; Diabetes, N 769, P 0.016) was 41% and the “RRR (relative risk reduction with gemfibrozil), All-Cause Mortality” value ([1]; Diabetes, N 769, P 0.059) was 25%. For the same molecule, the “Five Year Event Rate, Stroke” value ([1]; subgroup All Others, placebo 4.0) was 3.2%, the “Five Year Event Rate, CHD” value ([1]; subgroup All Others, placebo 16.6) was 15.3% and the “Five Year Event Rate, Stroke” value ([1]; subgroup Diabetes, placebo 10.5) was 6.6%. The “Five Year Event Rate, CHD” value ([1]; subgroup Diabetes, placebo 29.4) was 21.2%, the “Five Year Event Rate, Stroke” value ([1]; subgroup Hyperinsulinemia (includes hyperinsulinemia + diabetes), placebo 8.1) was 6.2% and the “Five Year Event Rate, CHD” value ([1]; subgroup Hyperinsulinemia (includes hyperinsulinemia + diabetes), placebo 27.7) was 20.9%. For the same molecule, the “Five Year Event Rate, Stroke” value ([1]; subgroup Hyperinsulinemia alone, placebo 4.3) was 4.7%, the “Five Year Event Rate, CHD” value ([1]; subgroup Hyperinsulinemia alone, placebo 23.1) was 16.8% and the “5-year incidence rate of all-cause mortality (in words)” value ([1]; patients with DM and isolated hyperinsulinemia analysed together) was “significantly reduce”. The “Overall Risk Reduction with Gemfibrozil” value ([1]; subgroup All Others) was 10.3%, the “Overall Risk Reduction with Gemfibrozil (cardiovascular or cerebrovascular event)” value ([1]; subgroup Diabetes) was 30.3% and the “Overall Risk Reduction with Gemfibrozil” value ([1]; subgroup Hyperinsulinemia (includes hyperinsulinemia + diabetes)) was 24.2%. The “Overall Risk Reduction with Gemfibrozil” value ([1]; subgroup Hyperinsulinemia alone) was 21.7%, the “Reduction of CHD death (in words)” value ([1]; subgroup of patients with DM and hyperinsulinemia) was “particularly effective” and the “Effect on HDL-C level (in words)” value [2] was “significantly raised”. The “Effect on HDL-C level (in words)” value ([2]; listed as gemfibrozil) was “significantly increased”, the “Effect on LDL-C level (in words)” value ([2]; compared to placebo) was “did not lower” and the “Effect on triglycerides (in words)” value ([2]; compared to placebo) was “lowered”. For the same molecule, the “Effect on LDL-C level (in words)” value ([2]; compared to placebo, listed as gemfibrozil) was “no effect”, the “Percent change in Lipids: LDL-C” value ([2]; gemfibrozil 1200 mg/day orally, men with CHD, low HDL-C and low LDL-C, not marked significant) was “+3.6%” and the “Percent change in Lipids: HDL-C” value [2, 4] was “+7.5%”. The “Percent change in Lipids: Triglycerides” value [2, 4] was −24.5%, the “Percent change in Lipids: total cholesterol” value [2, 4] was −2.9% and the “Effectiveness in subgroups (in words)” value ([3]; both diabetics and non-diabetics, younger as well as older patients) was “effective”. The “New or recurrent CHD events, including nonfatal MI, CHD death, certain forms of stroke or TIA (in words)” value ([3]; gemfibrozil 1200 mg/day) was “significant reduction”, the “Primary endpoint CHD death/nonfatal MI, rate in treatment group” value ([3]; gemfibrozil 1200 mg/day, median follow-up 5.1 years, placebo 22%) was 17% and the “Major adverse events (deaths from any cause and cancer monitored)” value ([3]; gemfibrozil 1200 mg/day, seven year study) was “not associated with any major adverse events”. For the same molecule, the “Incidence rate: carotid endarterectomy” value ([3]; gemfibrozil group, placebo 3.5%) was 1.3%, the “Incidence rate: transient ischemia attack (TIA)” value ([3]; gemfibrozil group, placebo 4.2%) was 1.7% and the “Incidence rate: total reported stroke” value ([3]; gemfibrozil group, placebo 7.0%) was 5.0%. For the same molecule, the “Incidence rate: hospitalization for congestive heart failure” value ([3]; gemfibrozil group, placebo 13.3%) was 10.6%, the “Reduction in combined endpoint of heart attacks, cardiac deaths, and strokes” value ([3]; gemfibrozil vs placebo, p=0.0011) was 24% and the “Relative risk reduction, CHD death/nonfatal MI (heart attacks and cardiac deaths)” value ([3]; gemfibrozil vs placebo, listed as GEMFIBROZIL) was 22%. The “Relative risk reduction, CHD death/nonfatal MI (heart attacks and cardiac deaths)” value ([3]; gemfibrozil vs placebo, listed as gemfibrozil) was 22% and the “Number of patients needed to be treated to prevent one heart attack, cardiac death, or stroke” value ([3]; over a time period (e.g., between 1 and 5 years)) was 18 patients.
